The species named for experiment [1] is Mus musculus. The experiment is described as follows: Anti-inflammatory activity in imiquimod-induced BALB/c mouse psoriasis model assessed as reduction in skin inflammation. In kind it is functional, organism-based.
The nature of experiment [2]: Upregulation of NE suppressed c-Kit expression in human epidermal melanocyte. In kind it is functional, cell-based.
In experiment [3] the target is T1, 3-oxo-5-alpha-steroid 4-dehydrogenase 1 (Homo sapiens, UniProt P18405).
T1 sequence (P18405 whole entry): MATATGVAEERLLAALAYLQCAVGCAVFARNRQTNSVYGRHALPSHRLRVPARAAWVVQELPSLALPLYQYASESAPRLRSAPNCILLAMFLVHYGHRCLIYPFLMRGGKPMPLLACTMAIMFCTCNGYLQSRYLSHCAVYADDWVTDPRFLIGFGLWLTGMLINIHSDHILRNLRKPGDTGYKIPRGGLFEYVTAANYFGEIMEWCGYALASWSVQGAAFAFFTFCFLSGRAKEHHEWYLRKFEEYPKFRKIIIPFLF
Kind of experiment: Inhibition of human steroid 5-alpha-reductase 1.

The nature of experiment [4]: Inhibition of lipid synthesis in androgen stimulated Hamster flank gland. In kind it is functional, Mesocricetus auratus.
For experiment [5], the species on record is Mus musculus. Kind of experiment: Anti-inflammatory activity in imiquimod-induced C57BL/6 mouse psoriasis model assessed as reduction in epidermal thickness at 200 uL relative to control. In kind it is functional. The arrangement: scale not given: the % may be the effect or the level left.

Broadly, the EC50 is the concentration giving half of the maximal effect. Usually IC50 stands for the concentration that inhibits the measured activity by half.

With `CN1C(=O)[C@@H](NC(=O)c2n[nH]c(Cc3ccccc3)n2)COc2ccccc21` [GSK2982772], the concentration giving a half-maximal response (EC50) in experiment [1] was 4 nM.

Turning to `COC(=O)C1=CO[C@@H](O[C@@H]2O[C@H](CO)[C@@H](O)[C@H](O)[C@H]2O)[C@@H]2C(CO)=CC[C@H]12` [GENIPOSIDE], the half-maximal effective concentration (EC50) in experiment [2] came to 1650 nM.

In turn, `CC1=C2CCc3cc(/C=C/c4ccccc4)ccc3N2CCC1=O` showed a half-inhibitory concentration (IC50) in experiment [3] of 14.2 nM.

Consider `C[C@]12C=CC(=O)C=C1CC[C@@H]1[C@@H]2C(=O)C[C@@]2(C)[C@H]1CC[C@]2(Cl)S(=O)(=O)Cc1ccccc1`, for which, in experiment [4], the “inhibition (INH)” value amounted to 70%.

As for `CCc1ccc(N(CC(C)C)S(=O)(=O)c2ccc(OCC3CCOCC3)c(CO)c2)cc1` [GSK2981278], in experiment [5], the Activity is listed as 23%.

Source of the values: ChEMBL document CHEMBL5512627, “Small-molecule agents for treating skin diseases” (Eur J Med Chem, 2024).
